Measured values published in publication PMC10436550, “Subacute toxicity evaluations of LPM3480392 in rats, a full µ-opioid receptor biased agonist” (Frontiers in Pharmacology, 2023).

What was measured:
[1] = test system: Sprague Dawley (SD) rats; test: Urinalysis, 4-week subacute toxicity study; assay type: in vivo, rat
Description: Urine samples were directly collected from the metabolic cage at the end of dosing phase (Day 26) and at the end of recovery phase (Recovery Day 28), respectively. Urinalysis parameters in Table 1 were evaluated using CLINITEK Atlas automatic urine analyzer (Germany).

[2] = test system: Sprague Dawley (SD) rats; test: Hematology, 4-week subacute toxicity study; conditions: female rats
[3] = 0.6 mg/kg/day, End of dosing phase, N 5
[4] = 0.6 mg/kg/day, End of recovery phase, N 5
[5] = 1.2 mg/kg/day, End of dosing phase, N 5
[6] = 1.2 mg/kg/day, End of recovery phase, N 5
[7] = 2.4 mg/kg/day, End of dosing phase, N 4
[8] = 2.4 mg/kg/day, End of dosing phase, N 5
[9] = 2.4 mg/kg/day, End of recovery phase, N 4
[10] = 2.4 mg/kg/day, End of recovery phase, N 5
[11] = 0.6 mg/kg/day, End of dosing phase
[12] = 0.6 mg/kg/day, End of recovery phase
[13] = 1.2 mg/kg/day, End of dosing phase

Fc1ccc([C@]2(CCNCc3cccc(Cl)c3)CCO[C@]3(CCOC3)C2)nc1 [LPM3480392]
KET (mmol/L) of males: animals with grade 1.5 [1, 3]: 3
KET (mmol/L) of males: animals with grade 3.9 [1, 3]: 1
KET (mmol/L) of males: animals with grade — [1, 3]: 1
NIT of males: animals with grade + [1, 3]: 2
NIT of males: animals with grade — [1, 3]: 3
pH of females: animals with grade 7.0 [1, 3]: 1
pH of females: animals with grade 7.5 [1, 3]: 3
pH of females: animals with grade 8.5 [1, 3]: 1
KET (mmol/L) of males: animals with grade 1.5 [1, 4]: 2
KET (mmol/L) of males: animals with grade 3.9 [1, 4]: 1
KET (mmol/L) of males: animals with grade — [1, 4]: 2
NIT of males: animals with grade + [1, 4]: 3
NIT of males: animals with grade — [1, 4]: 2
pH of females: animals with grade 6.0 [1, 4]: 0
pH of females: animals with grade 6.5 [1, 4]: 0
pH of females: animals with grade 7.0 [1, 4]: 0
pH of females: animals with grade 7.5 [1, 4]: 4
pH of females: animals with grade 8.0 [1, 4]: 1
KET (mmol/L) of males: animals with grade 1.5 [1, 5]: 3
KET (mmol/L) of males: animals with grade 3.9 [1, 5]: 1
KET (mmol/L) of males: animals with grade — [1, 5]: 1
NIT of males: animals with grade + [1, 5]: 1
NIT of males: animals with grade — [1, 5]: 4
pH of females: animals with grade 7.0 [1, 5]: 1
pH of females: animals with grade 7.5 [1, 5]: 3
pH of females: animals with grade 8.5 [1, 5]: 1
KET (mmol/L) of males: animals with grade 1.5 [1, 6]: 2
KET (mmol/L) of males: animals with grade 3.9 [1, 6]: 1
KET (mmol/L) of males: animals with grade — [1, 6]: 2
NIT of males: animals with grade + [1, 6]: 1
NIT of males: animals with grade — [1, 6]: 4
pH of females: animals with grade 6.0 [1, 6]: 1
pH of females: animals with grade 6.5 [1, 6]: 0
pH of females: animals with grade 7.0 [1, 6]: 2
pH of females: animals with grade 7.5 [1, 6]: 1
pH of females: animals with grade 8.0 [1, 6]: 1
pH of females: animals with grade 7.0 [1, 7]: 0
pH of females: animals with grade 7.5 [1, 7]: 1
pH of females: animals with grade 8.5 [1, 7]: 3
KET (mmol/L) of males: animals with grade 1.5 [1, 8]: 0
KET (mmol/L) of males: animals with grade 3.9 [1, 8]: 0
KET (mmol/L) of males: animals with grade — [1, 8]: 5
NIT of males: animals with grade + [1, 8]: 1
NIT of males: animals with grade — [1, 8]: 4
pH of females: animals with grade 6.0 [1, 9]: 0
pH of females: animals with grade 6.5 [1, 9]: 2
pH of females: animals with grade 7.0 [1, 9]: 2
pH of females: animals with grade 7.5 [1, 9]: 0
pH of females: animals with grade 8.0 [1, 9]: 0
KET (mmol/L) of males: animals with grade 1.5 [1, 10]: 1
KET (mmol/L) of males: animals with grade 3.9 [1, 10]: 0
KET (mmol/L) of males: animals with grade — [1, 10]: 4
NIT of males: animals with grade + [1, 10]: 0
NIT of males: animals with grade — [1, 10]: 5
LYM [2, 11]: 4.17 ± 0.90 10^9/L
LYM% [2, 11]: 86.1 ± 5.8%
MCV [2, 11]: 58.1 ± 1.5 fL
MONO [2, 11]: 0.05 ± 0.02 10^9/L
MONO% [2, 11]: 1.1 ± 0.4 %
NEU [2, 11]: 0.51 ± 0.26 10^9/L
NEU% [2, 11]: 10.6 ± 5.5%
PLT [2, 11]: 1072 ± 103 10^9/L
RBC [2, 11]: 6.90 ± 0.35 10^12/L
WBC [2, 11]: 4.84 ± 0.93 10^9/L
LYM [2, 12]: 3.46 ± 0.53 10^9/L
LYM% [2, 12]: 85.8 ± 4.4 %
MCV [2, 12]: 56.4 ± 1.2 fL
MONO [2, 12]: 0.04 ± 0.02 10^9/L
MONO% [2, 12]: 1.1 ± 0.4 %
NEU [2, 12]: 0.42 ± 0.17^* 10^9/L
NEU% [2, 12]: 10.6 ± 4.8 %
PLT [2, 12]: 975 ± 144 10^9/L
RBC [2, 12]: 7.56 ± 0.22 10^12/L
WBC [2, 12]: 4.03 ± 0.57 10^9/L
LYM [2, 13]: 4.21 ± 1.29 10^9/L
LYM% [2, 13]: 85.7 ± 7.2%
MCV [2, 13]: 58.7 ± 2.1 fL
MONO [2, 13]: 0.05 ± 0.02 10^9/L
MONO% [2, 13]: 0.9 ± 0.3 %
NEU [2, 13]: 0.50 ± 0.24 10^9/L
NEU% [2, 13]: 11.1 ± 7.2%
PLT [2, 13]: 1064 ± 104 10^9/L
